Reference: the NIST ThermoML archive (doi:10.1016/j.jct.2011.02.018)

Test: xn = mol fraction of the nth substance listed
Conditions: 101 kPa, Liquid; for viscosity: Concentric cylinders viscometry; for mass density: Vibrating tube method

COC(C)(C)C [2-methoxy-2-methylpropane] + CC(C)O
Conditions	mass density, 293.15 K [kg/m3]	mass density, 298.15 K [kg/m3]	mass density, 303.15 K [kg/m3]	mass density, 308.15 K [kg/m3]	viscosity, 293.15 K [mPa·s]	viscosity, 298.15 K [mPa·s]	viscosity, 303.15 K [mPa·s]	viscosity, 308.15 K [mPa·s]
x1 = 0.0093	784.82	780.63	776.34	771.97	2.325	1.988	1.716	1.488
x1 = 0.0206	784.14	779.92	775.62	771.24	2.232	1.919	1.661	1.444
x1 = 0.0305	783.55	779.33	775.01	770.65	2.145	1.853	1.606	1.399
x1 = 0.0398	783	778.77	774.43	770.06	2.066	1.773	1.547	1.35
x1 = 0.0499	782.41	778.17	773.82	769.37	1.982	1.719	1.496	1.307
x1 = 0.0601	781.75	777.51	773.15	768.84	1.901	1.653	1.443	1.264
x1 = 0.0702	781.19	776.93	772.55	768.22	1.832	1.595	1.395	1.226
x1 = 0.0799	780.66	776.38	772	767.62	1.761	1.538	1.348	1.186
x1 = 0.0914	780.12	775.85	771.45	766.96	1.693	1.479	1.299	1.145
x1 = 0.1009	779.62	775.32	770.89	766.39	1.634	1.432	1.26	1.112
x1 = 0.1493	777.01	772.62	768.12	763.55	1.391	1.235	1.093	0.9806
x1 = 0.2014	774.27	769.81	765.24	760.59	1.193	1.057	0.9479	0.8473
x1 = 0.244	771.96	767.45	762.82	758.12	1.05	0.9465	0.8652	0.7741
x1 = 0.2863	769.95	765.38	760.69	755.94	0.9352	0.8443	0.7635	0.6933
x1 = 0.3081	768.87	764.26	759.55	754.77	0.885	0.8004	0.7251	0.6588
x1 = 0.351	766.72	762.06	757.3	752.47	0.8018	0.729	0.6639	0.6054
x1 = 0.3995	764.43	759.73	754.91	750.02	0.7225	0.6613	0.6057	0.5521
x1 = 0.4516	762.08	757.31	752.43	747.48	0.6544	0.6008	0.5514	0.501
x1 = 0.4999	759.97	755.15	750.22	745.22	0.6	0.5578	0.5139	0.4673
x1 = 0.5497	757.86	752.98	748.01	742.97	0.5545	0.5128	0.4738	0.4345
x1 = 0.5994	755.8	750.88	745.87	740.79	0.5151	0.477	0.4395	0.4032
x1 = 0.6493	753.77	748.81	743.75	738.63	0.4839	0.4481	0.4129	0.3822
x1 = 0.6993	751.8	746.81	741.69	736.5	0.4525	0.4253	0.3938	0.3678
x1 = 0.7499	749.84	744.78	739.62	734.4	0.4259	0.398	0.3695	0.3487
x1 = 0.8015	747.89	742.8	737.6	732.34	0.4066	0.3819	0.352	0.3323
x1 = 0.8509	746.05	740.92	735.7	730.41	0.3844	0.3613	0.3397	0.3136
x1 = 0.8997	744.25	739.1	733.84	728.52	0.3678	0.3459	0.3193	0.303
x1 = 0.9089	743.91	738.76	733.49	728.17	0.3718	0.3448	0.3254	0.298
x1 = 0.9191	743.54	738.35	733.11	727.78	0.3617	0.3398	0.3152	0.2968
x1 = 0.9294	743.17	737.99	732.74	727.41	0.3609	0.3374	0.3121	0.2986
x1 = 0.9401	742.78	737.6	732.34	727.01	0.3548	0.3317	0.307	0.293
x1 = 0.9512	742.37	737.18	731.91	726.58	0.355	0.3361	0.3045	0.2959
x1 = 0.9587	742.11	736.92	731.64	726.3	0.3558	0.3309	0.3021	0.2906
x1 = 0.97	741.7	736.51	731.24	725.88	0.3466	0.3247	0.302	0.2819
x1 = 0.9777	741.42	736.23	730.94	725.59	0.3447	0.3228	0.2983	0.2804
x1 = 0.9897	740.99	735.8	730.5	725.16	0.342	0.3204	0.2943	0.283
